Reference: patent US20180086744A1, “COMBINATION TREATMENT OF CANCER COMPRISING EGFR/HER2 INHIBITORS” (Boehringer Ingelheim International GmbH, priority 2005, published 2018)

Legend:
SKOV-3 cells = experiment: anchorage independent SKOV-3 cell assay (soft agar); type: cell-based, human
Description: SKOV-3 cells are grown on a soft agar layer in the presence of 2 nM BIBW2992BS or three concentrations of 5FU (200 nM, 400 nM, 800 nM) or in combination of both.

[1] = tested on: cell lines expressing double mutant EGF receptors; details: cited from earlier work
[2] = tested on: double mutant EGF receptors; details: cell lines expressing double mutant EGF receptors; cited from earlier work

## CN(C)C/C=C/C(=O)Nc1cc2c(Nc3ccc(F)c(Cl)c3)ncnc2cc1O[C@H]1CCOC1 [BIBW2992, 4-[(3-chloro-4-fluorophenyl)amino]-6-{[4-(N,N-dimethylamino)-1-oxo-2-buten-1-yl]amino}-7-((S)-tetrahydrofuran-3-yloxy)-quinazoline]
SKOV-3 cells; Homo sapiens, SK-OV-3, 2 nM, read-out: inhibition of cell growth
  inhibition at 0.002 µM: 20%

## O=c1[nH]cc(F)c(=O)[nH]1 [5FU, 5-fluorouracile]
SKOV-3 cells; 200 nM
  inhibition of cell growth: No inhibition
SKOV-3 cells; 400 nM
  inhibition of cell growth: No inhibition
SKOV-3 cells; Homo sapiens, SK-OV-3, 800 nM, read-out: inhibition of cell growth
  inhibition at 0.8 µM: 13%

## CC#CC(=O)Nc1ccc2ncnc(Nc3cccc(Br)c3)c2c1 [CL 387,785]
[1]
  inhibition of proliferation: able to inhibit
[2]
  inhibition of EGF-induced EGFR phosphorylation: able to inhibit
